Reference: patent US7078411B2, “Phospholipid transfer protein (PLTP) and cholestoral metabolism” (priority 2001, dated 2006)
“Also recorded” adds a separate entry of the source.

How the values were obtained:
[1] = system: cultured tumor cell lines; conditions: Table 1
Text: To determine whether the induction of PLTP expression is topotecan specific, we evaluated the effects of camptothecin and some of its derivatives, and compared them against some protoberberines, which are a new class of organic cations that are dual poisons of topoisomerases I and II (3–5). Berberine is an isoquinoline plant alkaloid.

[2] = system: PLTP expression; assay: Northern blot analysis of PLTP expression in HepG2 cells; type: cell-based, human; conditions: for induction of PLTP expression: 500 nM, 24 hrs (FIG. 5)
Experimental: Dose response induction of PLTP was performed in HepG2 cells for 24 hrs. RNAs isolated were separated on agarose gel and then transferred to nitrocellulose filters for hybridization with a labeled full-length PLTP cDNA probe. […] Lane 1, control (untreated); 2, 1 nM; 3, 20 nM; 4, 100 nM; 5, 500 nM; and 6, 1,000 nM topotecan expression. […] This may be a result of the inhibition of transcription by topotecan at the higher dosage.
HepG2 cells were treated with the indicated drugs (500 nM) for 24 hrs. RNAs were then harvested and fractionated on agarose gel and then transferred to nitrocellulose filters for hybridization with a full length PLTP cDNA probe.
We first examined topotecan-induced PLTP expression in an independent dose response study by Northern blot analysis. […] This may be a result of the inhibition of transcription by topotecan at the higher dosage. […]

[3] = system: PLTP promoter; type: cell-based, human; conditions: HepG2/PLTPpLuc; for specificity of induction of PLTP promoter activity: 24 hours (FIG. 14)
Text: FIG. 11 is a schematic drawing of the promoter of the phospholipid transfer protein (PLTP) gene. A 1.6 kb fragment of the PLTP gene promoter derived from a BAC clone was PCR amplified and then subcloned into a modified pXP1 luciferase reporter plasmid vector. The modified vector contained the neomycin resistance marker gene.
HepG2 cells were permanently transfected with the construct shown in FIG. 11, and selected for resistance to G418, an aminoglycoside antibiotic. Clone 1, a G418 resistant cell line isolated from the selection, designated HepG2/PLTPpLuc, was utilized for testing the effect of topotecan on induction of PLTP promoter activity. The transfectant cell line, HepG2/PLTPpLuc, was treated with topotecan (500 nM) for approximately 24 hours. Cell extracts were obtained at the end of incubation and the luciferase assay was performed with them. The luciferase activity of the topotecan treated cells (+) was plotted relative to the control (−).
FIG. 13 illustrates the time course analysis of induction of PLTP promoter activity by topotecan in HepG2/PLTPpLuc cells. The HepG2/PLTPpLuc cells were treated with 500 nM of topotecan. Cell extracts were obtained at various time points following treatment with topotecan (0, 4, 8, 12, 16, and 24 hours) and assayed for luciferase activity, which was plotted as a function of time.
The HepG2/PLTPpLuc cells were treated with either topotecan, taxol, or melphalan for 24 hours. Cell extracts were then obtained for the luciferase assay.
The luciferase reporter plasmid was constructed by cloning the PLTP promoter derived from a BAC clone into the pXP2 luciferase reporter vector. A neomycin selectable marker gene driven by the CMV early promoter was further subcloned into the PLTP-luciferase reporter plasmid (FIG. 11).
Approximately 10 μg of the PLTP-luciferase reporter plasmid was transfected using lipofectamine into HepG2 cells for about 4 hrs. Cells were washed and then further cultured and selected in the presence of 1.6 mg/ml of G418 for neomycin resistance. Media were changed every 3 days with fresh G418 added at the above concentration. Approximately 14 days later, colonies that emerged from the selection were picked using cloning cylinders and the clones were transferred to 24-well cluster dishes for further culturing and selection.
At confluence, cells were next transferred to 12-well dishes and aliquots were also transferred to 24-well dishes for screening with topotecan for induction of the PLTP promoter activity. Luciferase assay was performed using a standard luciferase assay kit from Promega.

[4] = system: phospholipid transfer protein (PLTP) gene; assay: DNA microarray expression profiling of topotecan-treated HepG2 cells; type: cell-based, human
Experimental: (§1) FIG. 1 is a DNA microarray presenting expression profiling of topotecan induced HepG2 cells. HepG2 cells were treated with 500 nM of topotecan in time course study for the indicated time points in the figure. RNAs were isolated, labeled and hybridized to the array. Scan image were analyzed using the Pathway and the Cluster softwares. The results of cluster analysis are shown in TreeView. Transition of color to red indicates the upregulation, and to green is the downregulation of gene expression.
FIG. 2 is a scanned image of the PLTP gene induced by topotecan. HepG2 cells were treated with topotecan in time-course and dose response studies. The microarrays were exposed to phosphorimage screen and the scanned images were analyzed with the Pathway software. Enlarged scanned images for the induction of PLTP gene with time and dose are shown.
as §1, with “3” for “1”, “various concentrations” for “500 nM”, “topotecan.” for “topotecan in time course study for the indicated time points in the figure.”, “images” for “image”, “TreeView. A representative set of genes with altered expression was plotted in the line graphs.” for “TreeView.”
We have used DNA microarray to monitor the expression profiles of cells in response to anticancer drug treatments, and also comparing these profiles to those obtained from cancer cells that have been selected for resistance to the corresponding agents. […]
The HepG2 cells were either transiently treated with 500 nM of topotecan for various times (1–24 hrs), or with various doses of topotecan (1–1000 nM) for 24 hrs. […] The scanned images were processed and analyzed on the Pathways™ software. Tab delimited files generated from Pathways™ were imported into Microsoft Excel® for sorting by fold changes and intensity levels (radioactivity, cpm).

[5] = system: PLTP promoter; assay: PLTP promoter-luciferase reporter, transient transfection in HepG2 cells (dual luciferase assay); type: cell-based, human; conditions: 24 hrs
Experimental: FIGS. 6A and 6B depict the transactivation of the PLTP promoter by topotecan. FIG. 6A is a schematic drawing of the PLTP gene promoter-luciferase reporter construct. The promoter was PCR amplified from a BAC clone containing the genomic sequence for the human PLTP gene. FIG. 6B graphically presents the results calibrated in terms of luciferase activity, of a study where HepG2 cells were transfected with the PLTP promoter-luciferase reporter and were then treated with various doses of topotecan for 24 hrs. Cell extracts were harvested for the dual luciferase assay (Promega, Wis.). The relative luciferase activity has been normalized with the internal control renella luciferase activity cotransfected with the promoter reporter construct, to monitor transfection efficiency.
We also determined whether induction of PLTP gene expression by topotecan is transcriptionally activated. Approximately 1.5 kb of the PLTP promoter sequence was obtained by the polymerase chain reaction (PCR) amplification of a human BAC clone (RP3-337018) containing the genomic sequence of PLTP. The PCR product consisting of the promoter region was sequenced verified and then subcloned into a luciferase reporter vector pGL2-Basic vector (Promega, Wis.) (FIG. 6A). […]

Row | Structure (SMILES) | Cytotoxicity [1] | induction of PLTP expression [2] | specificity of induction of PLTP promoter activity [3] | further results
1 | CCC1(O)C(=O)OCc2c1cc1n(c2=O)Cc2cc3c(N)c4c(cc3nc2-1)OCO4 [9-NH2-10,11-MD-CPT(R)] | Inactive |  |  | 
2 | CCC1(O)C(=O)OCc2c1cc1n(c2=O)Cc2cc3c(N)c4c(cc3nc2-1)OCO4 [9-NH2-10,11-MD-CPT(S)] | Active | induced |  | 
3 | CC[C@@]1(O)C(=O)OCc2c1cc1n(c2=O)Cc2cc3c(N)cccc3nc2-1 [9-NH2-CPT(S)] | Active | induced |  | 
4 | CC[C@@]1(O)C(=O)OCc2c1cc1n(c2=O)Cc2cc3ccccc3nc2-1 [Camptothecin (CPT), Camptothecin] | Active | induced |  | 
5 | CCc1c2c(nc3ccc(OC(=O)N4CCC(N5CCCCC5)CC4)cc13)-c1cc3c(c(=O)n1C2)COC(=O)[C@]3(O)CC [Irinotecan (CPT-11), Irinotecan] |  | failed to activate PLTP expression |  | 
6 | N[C@@H](Cc1ccc(N(CCCl)CCCl)cc1)C(=O)O [melphalan] |  |  | no significant stimulation | 
7 | CC(=O)O[C@H]1C(=O)[C@@]2(C)[C@H]([C@H](OC(=O)c3ccccc3)[C@]3(O)C[C@H](OC(=O)[C@H](O)[C@@H](NC(=O)c4ccccc4)c4ccccc4)C(C)=C1C3(C)C)[C@]1(OC(C)=O)CO[C@@H]1C[C@@H]2O [taxol] |  |  | no significant stimulation | 
8 | CC[C@@]1(O)C(=O)OCc2c1cc1n(c2=O)Cc2cc3c(CN(C)C)c(O)ccc3nc2-1 [topotecan] |  | induced | specific for topotecan | induction of PLTP gene expression ([4]; 500 nM topotecan, after 24 hrs of exposure): approximately 20 fold; onset of PLTP expression after exposure ([4]; 500 nM topotecan, time course): 10 to 15 h; induction of PLTP expression, dose response ([4]; 1–1000 nM, 24 hrs): elevated in a dose dependent manner; PLTP expression at the highest dose ([2]; 1 μM, 24 hrs): reversed; induction of PLTP expression, dose response ([2]; 1–1000 nM, 24 hrs): dose dependent induction; also recorded: elevated with increasing doses; PLTP promoter activity at the highest dose ([5]; 1 μM): inhibition of the promoter activity; transactivation of PLTP promoter, dose response ([5]; various doses): transactivated by topotecan dose-dependently; induction of PLTP promoter activity ([3]; 500 nM, approximately 24 hours (FIG. 12)): approximately 20 fold
9 | CC[C@]1(O)C[C@@H]2CN(CCc3c([nH]c4ccccc34)[C@@](C(=O)OC)(c3cc4c(cc3OC)N(C)[C@H]3[C@@](O)(C(=O)OC)[C@H](OC(C)=O)[C@]5(CC)C=CCN6CC[C@]43[C@@H]65)C2)C1 [vinblastine] |  | failed to induced PLTP gene expression; also recorded: did not induce PLTP expression |  | 
